Measured values: patent publication US20070238725A1, “Therapeutic combinations for the treatment or prevention of psychotic disorders” (Wyeth, priority 2006, published 2007)
Where two headings read alike, the source gives them in different places.

Legend:
[1] = test system: apomorphine-induced climbing; assay: Apomorphine-induced climbing in mice; type: in vivo; conditions: for block of apomorphine-induced climbing: versus either compound alone; for ED50: Mus musculus, read-out: ED50 for apomorphine block; for dose for increased efficacy with co-administration: co-administration with haloperidol
Method: (Compound 2, “cpd 2”) to exemplify, the present Example describes four experiments in which a compound of formula I, was administered in combination with either a typical (exemplified by haloperidol) or atypical (exemplified by clozapine). The combination reduced apomorphine-induced climbing without side effects.
(§1) Mice were acclimated to the climbing cages for at least 1 hour and then dosed with either the vehicle or a dose of haloperidol or clozapine followed by a dose of either vehicle or a dose of Compound 1. Thirty minutes after dosing all mice received 1 mg/kg, s.c. apomorphine and returned to the climbing cages. Five minutes after apomorphine the mice were observed and scored for climbing and stereotypy every 5 minutes for the 30 minute test session.

[2] = test system: conditioned avoidance responding; assay: Conditioned avoidance responding; type: in vivo; conditions: rats
Method: (Compound 2, “cpd 2”) to exemplify, the present Example describes an experiment to determine the effect of co-administration of haloperidol (0.54 mg/kg, i.p. 30′ pretreatment) or clozapine (5.4 mg/kg, i.p., 30′ pretreatment) and compound 1 (0.54 mg/kg, i.p., 30′ pretreatment) or compound 2 (1 mg/kg, i.p. 30′ pretreatment) on conditioned avoidance responding.
Male rats had been trained to a stable criterion performance of 90% avoidance responding and had been used in previous drug studies. The dosing plan was a within subject pseudo random design so that all rats received all treatments over several weeks. On test days in experiments 1 and 2 the rats were dosed with vehicle, Compound 1, haloperidol or clozapine or a combination of Compound 1/haloperidol or Compound 1/clozapine. On test days in experiments 3 and 4 the rats were dosed with vehicle, Compound 2, haloperidol or clozapine or a combination of Compound 2/haloperidol or Compound 2/clozapine. Conditioned avoidance testing commenced 30 minutes after treatment and the rats received 50 trials and the number of avoidance, escape and no response trials was recorded.

stereotypy = assay: Apomorphine-induced stereotypy scored in the climbing test; type: in vivo, mice
Method: as §1

[3] = test system: haloperidol induced catalepsy; assay: Catalepsy (bar test), extra-pyramidal side effect liability; type: in vivo, mice; conditions: for dose for increased EPS liability with co-administration: co-administration with haloperidol, mice
Method: (Compound 2, “cpd 2”) to exemplify, the present Example describes an experiment in which a compound of formula I was administered in combination with haloperidol to assess extra-pyramidal side effect liability, as represented by cataleptic behavior. [table] [table] [table] Mice were dosed with either the vehicle or a dose of haloperidol followed by a dose of either vehicle or a dose of Compound 1 or Compound 2. Thirty, 60, 90 and 120 minutes after dosing, the forelegs are draped over a thin horizontal rod 1.75″ high. The number of seconds up to 60 sec for which the mouse remains on the bar is recorded at each test point and presented as the percent of maximum possible response (60 sec).

[4] = sc, 0.5 h, compound alone, mice, apomorphine 1 mg/kg s.c. 30 min after dosing
[5] = administered individually, 0.54 mg/kg i.p., 30 min pretreatment

Compound: c1cc2c3c(c1)[C@H]1CCC[C@H]1N3CCNC2 [Compound 1]
- block of apomorphine-induced climbing ([1]; Compound 1 5.4 & 17 mg/kg co-administered with clozapine 3 & 5.4 mg/kg): greater block
- block of apomorphine-induced climbing ([1]; Compound 1 5.4 & 17 mg/kg co-administered with haloperidol 0.17 & 0.3 mg/kg): greater block
- ED50 [1, 4]: 17 mg/kg
- dose for increased efficacy with co-administration ([1]; mice): 5.4 mg/kg
- ED50 for apomorphine block ([1]; compound alone, mice, apomorphine 1 mg/kg s.c. 30 min after dosing): 15.89 mg/kg
- decrease in avoidance responding ([2]; Compound 1 0.54 mg/kg co-administered with clozapine 5.4 mg/kg, i.p.): > 70%
- effect on number of no response trials ([2]; Compound 1 0.54 mg/kg co-administered with clozapine 5.4 mg/kg): no adverse effects
- decrease in avoidance responding ([2]; Compound 1 0.54 mg/kg co-administered with haloperidol 0.54 mg/kg, i.p.): > 70%
- effect on number of no response trials ([2]; Compound 1 0.54 mg/kg co-administered with haloperidol 0.54 mg/kg): no adverse effects
- decrease in avoidance responding [2, 5]: ~10%
- stereotypy relative to 0.3 haloperidol alone (stereotypy; 0.3 mg/kg haloperidol with all doses of Compound 1 (1.7, 5.4, 17 mg/kg)): decreased stereotypy
- decrease in stereotypy (stereotypy; 17 mg/kg Compound 1 and 0.17 mg/kg haloperidol combined treatment group): < 10%
- decrease in stereotypy (stereotypy; 17 mg/kg Compound 1 and 5.4 mg/kg clozapine combined treatment): ~13%
- catalepsy, percent of maximum catalepsy (60 sec on bar) ([3]; Compound 1 17 mg/kg with 0.17 and 0.3 mg/kg haloperidol, moderate increase, 30-120 min after dosing): up to 30%
- dose for increased EPS liability with co-administration [3]: ≥ 17 mg/kg
- potentiation of haloperidol-induced catalepsy ([3]; lower doses of Compound 1 (1.7, 5.4 mg/kg) with 0.17 and 0.3 mg/kg haloperidol): failed to potentiate catalepsy

Compound: c1cc2c3c(c1)[C@H]1CCC[C@H]1CN3CCNC2 [Compound 2]
- block of apomorphine-induced climbing ([1]; Compound 2 3, 10 & 30 mg/kg co-administered with clozapine 3 & 5.4 mg/kg): greater block
- block of apomorphine-induced climbing ([1]; Compound 2 3, 10 & 30 mg/kg co-administered with haloperidol 0.1 & 0.17 mg/kg): greater block
- ED50 ([1]; co-administered with 0.1 mg/kg of haloperidol, mice): 2.4 mg/kg
- ED50 ([1]; co-administered with 0.17 mg/kg of haloperidol, mice): 4.1 mg/kg
- ED50 ([1]; compound alone, Experiment 4, mice): 27.1 mg/kg
- ED50 [1, 4]: 27.1 mg/kg
- dose for increased efficacy with co-administration ([1]; mice): 3 mg/kg
- decrease in avoidance responding ([2]; Compound 2 1 mg/kg co-administered with clozapine 5.4 mg/kg, i.p.): > 60%
- effect on number of no response trials ([2]; Compound 2 1 mg/kg co-administered with clozapine 5.4 mg/kg): no adverse effects
- decrease in avoidance responding ([2]; Compound 2 1 mg/kg co-administered with haloperidol 0.54 mg/kg, i.p.): > 50%
- effect on number of no response trials ([2]; Compound 2 1 mg/kg co-administered with haloperidol 0.54 mg/kg): no adverse effects
- decrease in stereotypy (stereotypy; 30 mg/kg Compound 2 and 0.17 mg/kg haloperidol combined treatment relative to haloperidol alone): ~30%
- decrease in stereotypy (stereotypy; 30 mg/kg Compound 2 and 5.4 mg/kg clozapine combined treatment): ~20%
- potentiation of haloperidol-induced catalepsy ([3]; Compound 2 10 mg/kg with haloperidol 0.1 and 0.17 mg/kg): failed to potentiate
- dose for increased EPS liability with co-administration [3]: > 10 mg/kg

Compound: CN1CCN(C2=Nc3cc(Cl)ccc3Nc3ccccc32)CC1 [clozapine, 8-chloro-11-(4-methyl-1-piperazinyl)-5H-dibenzo[b,e]-[1,4]-diazepine, reference compound]
- decrease in avoidance responding ([2]; administered individually, 5.4 mg/kg i.p., 30 min pretreatment): ~10%

Compound: O=C(CCCN1CCC(O)(c2ccc(Cl)cc2)CC1)c1ccc(F)cc1 [haloperidol, 4-[4-(4-chlorophenyl)-4-hydroxy-1-piperidinyl]-1-(4-fluoro-phenyl)-1-butanone, reference compound]
- decrease in avoidance responding [2, 5]: ~10%
